# Test results from patent publication US20060204980A1, “Colorectal cancer therapies” (priority 2004, published 2006).
# Tests used:
# GSK3β [1] = biological target: T1, GSK3β (Homo sapiens, UniProt P49841); experiment: Immunoprecipitation and GSK3β kinase assay using glycogen synthase-derived peptide substrate, from treated HCT116 cells; format: cell-based; parameters: harvested after 6 or 12 hours, and immunoprecipitated with an antibody to GSK3β; endogenous in cells; host or cells: HCT116 (p53+/+) colorectal carcinoma cells; settings: p53+/+ HCT116 cells; Purvalanol A 10 μM, LiCl 30 mM, TDZD 20 μM; 6 or 12 hours
# T1 sequence (P49841 whole entry): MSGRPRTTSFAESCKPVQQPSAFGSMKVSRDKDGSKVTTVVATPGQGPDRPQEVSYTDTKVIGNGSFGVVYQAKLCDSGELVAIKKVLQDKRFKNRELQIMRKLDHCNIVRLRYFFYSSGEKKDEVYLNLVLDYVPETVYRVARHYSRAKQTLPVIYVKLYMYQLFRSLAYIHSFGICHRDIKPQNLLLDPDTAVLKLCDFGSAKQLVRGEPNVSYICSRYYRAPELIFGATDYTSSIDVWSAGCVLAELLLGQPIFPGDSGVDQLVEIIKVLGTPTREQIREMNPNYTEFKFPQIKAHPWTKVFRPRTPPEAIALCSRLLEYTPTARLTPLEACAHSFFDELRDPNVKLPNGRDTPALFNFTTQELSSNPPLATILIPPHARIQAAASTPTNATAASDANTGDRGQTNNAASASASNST
# Description: Immune complexes were mixed with a synthetic peptide containing a GSK3β phosphorylation site derived from the sequence of glycogen synthase (Upstate Biotechnology) in the presence of 10 μCi of γ-^32P-ATP (Amersham Corp., Piscataway, N.J.), after 30 min incubation at 30° C., the reaction mixtures were centrifuged briefly, and 15 μl of the supernatant was spotted onto P81 phosphocellulose paper (Whatman Inc., Clifton, N.J.). The membrane was washed three times with 175 mM phosphoric acid, rinsed once in acetone, and dried. Changes in peptide phosphorylation under the various conditions tested were determined by scintillation counting. Data were analyzed using the unpaired t test on a Graphpad Prism software package for Windows (Graphpad Inc., San Diego, Calif.). A P value of 0.05 was considered as statistically significant.
# p53^+/+ HCT116 cells = experiment: Hypodiploid DNA content by propidium iodide staining and flow cytometry, p53+/+ HCT116; format: cell-based; settings: 0-20 μM, 48 hours
# Description: Cells were collected and centrifuged at 3,000 rpm for 5 minutes at 4° C., and washed in PBS (pH 7.2). The cell pellet was solubilized in lysis buffer (20 mM Tris, pH 7.2, 0.5% deoxycholate, 1% Triton X-100, 0.1% SDS, 150 mM NaCl, 1 mM EDTA) containing proteases inhibitors (Complete, Roche Applied Science) for 30 min at 4° C. The lysate was cleared by centrifugation for 15 minutes, and protein concentration was evaluated using a Bio-Rad protein assay system (Bio-Rad Laboratories, Hercules, Calif.). […] Cells were analyzed for hypodiploid DNA content by propidium iodide staining and flow cytometry as described in O'Connor et al., Cancer Cell, 2:43-54 (2002). […]
# The functional consequences of GSK3β inhibition were explored. […] Alternatively, cells were incubated with GSK3β inhibitors LiCl (30 mM) or TDZD (20 μM), harvested after 48 hours and analyzed for cell viability (propidium iodide, red channel) and active caspase-3/7 activity (green channel, […]®, from Chemicon International Inc., Temecula, Calif.), by multiparametric flow cytometry as reported previously in Kim et al., Lancet, 362:205-209 (2003).
# Cdk2 = Cdk2 (Homo sapiens, UniProt P24941); settings: in vivo, Knockaert et al.; cited from earlier work
# [2] = system: wild-type (WT) or GSK3β^−/− primary murine embryonic fibroblasts (MEF) cells; experiment: Western blotting of p53 in wild-type or GSK3β-/- primary MEF cells; format: cell-based; parameters: dose or concentration left out as unconfirmed; settings: Purvalanol A, 6-24 hour
# Description: To confirm the link between GSK3β inhibition and p53 modulation in vivo, p53^+/+ HCT116 cells were transfected with wild-type GSK3β or a kinase-dead GSK3β dominant negative mutant (GSK3β DN mutant), previously described in Pap and Cooper, J. Biol. Chem., 273:19929-19932 (1998). Non-transformed wild-type (WT) or GSK3β^−/− primary murine embryonic fibroblasts (MEF) cells, described in Hoeflich et al., Nature, 406:86-90 (2000), were maintained in culture in DMEM supplemented with 10% FCS, 100 U/ml penicillin, and 100 μg/ml streptomycin (all from Invitrogen) in 5% CO2 at 37° C. […] Western blotting was performed as described in Example 2, to evaluate the expression of p53, p21^Waf1/Cip1 or β-actin at 6-24 hour intervals.
# GSK3β [3] = biological target: T1, GSK3β; settings: battery of kinase substrates, Bain et al.; cited from earlier work
compound,measurement,setting,value
CC(C)[C@H](CO)Nc1nc(Nc2cccc(Cl)c2)c2ncn(C(C)C)c2n1 [Purvalanol A],GSK3β kinase activity (peptide phosphorylation),GSK3β [1],potently inhibited GSK3β kinase activity
same,apoptosis (hypodiploid DNA content),p53^+/+ HCT116 cells,concentration-dependent induction of apoptosis
same,suppression of Cdk2,Cdk2,equally effective
same,p53 expression (Western blot),[2],did not further modulate p53 expression
same,activity against GSK3β in vitro,GSK3β [3],not active against GSK3β
